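These data come from cells grown in 96-well plates and exposed to compound for 48 hours at five concentrations. GI50: concentration for 50% inhibition of growth. Definition used: TGI = concentration required for complete inhibition of growth.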
Columns and labels:
Assay in all cases: DTP human tumour cell line panel, 48 h
[1] = system: 786-0 renal
[2] = system: A498 renal
[3] = system: A549 NSCLC
[4] = system: ACHN renal
[5] = system: BT-549 breast
[6] = system: CAKI-1 renal
[7] = system: CCRF-CEM leukemia
[8] = system: COLO 205 colon
[9] = system: DU-145 prostate
[10] = system: EKVX NSCLC
[11] = system: HCC-2998 colon
[12] = system: HCT-116 colon
[13] = system: HCT-15 colon
[14] = system: HL-60(TB) leukemia
[15] = system: HOP-62 NSCLC
[16] = system: HS 578T breast
[17] = system: HT29 colon
[18] = system: IGROV1 ovarian
[19] = system: K-562 leukemia
[20] = system: KM12 colon
[21] = system: LOX IMVI melanoma
[22] = system: M14 melanoma
[23] = system: MALME-3M melanoma
[24] = system: MCF7 breast
[25] = system: MDA-MB-231 breast
[26] = system: MDA-MB-435
[27] = system: MOLT-4 leukemia
[28] = system: NCI-H226 lung
[29] = system: NCI-H23 lung
[30] = system: NCI-H460 lung
[31] = system: NCI-H522 lung
[32] = system: NCI/ADR-RES ovarian
[33] = system: OVCAR-3 ovarian
[34] = system: OVCAR-4 ovarian
[35] = system: OVCAR-5 ovarian
[36] = system: OVCAR-8 ovarian
[37] = system: PC-3 prostate
[38] = system: RPMI-8226 leukemia
[39] = system: RXF 393 renal
[40] = system: SF-268 CNS
[41] = system: SF-295 CNS
[42] = system: SF-539 CNS
[43] = system: SK-MEL-2 melanoma
[44] = system: SK-MEL-28 melanoma
[45] = system: SK-MEL-5 melanoma
[46] = system: SK-OV-3 ovarian
[47] = system: SN12C renal
[48] = system: SNB-19 CNS
[49] = system: SNB-75 CNS
[50] = system: SR leukemia
[51] = system: SW-620 colon
[52] = system: T-47D breast
[53] = system: TK-10 renal
[54] = system: U251 CNS
[55] = system: UACC-257 melanoma
[56] = system: UACC-62 melanoma
[57] = system: UO-31 renal

Work on `COc1ccc(CN2CCc3c(Sc4ccccc4)nc(N)nc3C2=O)c(OC)c1` yielded a GI50 [1] of 7.62 µM, a TGI [1] of over 100 µM and a GI50 [2] of 7.22 µM. For the same compound, the TGI [2] was 57.7 µM, the GI50 [3] was 9.49 µM and the TGI [3] was 45.8 µM. For the same compound, the GI50 [4] was 7.25 µM, the TGI [4] was 52 µM and the GI50 [5] was 2.3 µM. For the same compound, the TGI [5] was 10.1 µM, the GI50 [6] was 3.4 µM and the TGI [6] was 18.3 µM. The GI50 [7] was 4.53 µM, the TGI [7] was 52.9 µM and the GI50 [8] was 14.8 µM. The TGI [8] was 47.9 µM, the GI50 [9] was 8.57 µM and the TGI [9] was 32.4 µM. The GI50 [10] was 4.32 µM, the TGI [10] was 19.9 µM and the GI50 [11] was 14.1 µM. It also gave a TGI [11] of 30.4 µM, a GI50 [12] of 3.9 µM and a TGI [12] of 36.6 µM. The GI50 [13] was 8.32 µM, the TGI [13] was 39.2 µM and the GI50 [14] was 1.56 µM. The TGI [14] was 5.32 µM, the GI50 [15] was 18 µM and the TGI [15] was 73.4 µM. The GI50 [16] was 16.3 µM, the TGI [16] was over 100 µM and the GI50 [17] was 7.61 µM. For the same compound, the TGI [17] was 23.6 µM, the GI50 [18] was 11 µM and the TGI [18] was 28.9 µM. The GI50 [19] was 4.3 µM, the TGI [19] was over 100 µM and the GI50 [20] was 8.67 µM. It also gave a TGI [20] of 32.7 µM, a GI50 [21] of 7.92 µM and a TGI [21] of 24.5 µM. The GI50 [22] was 9.61 µM, the TGI [22] was 28.1 µM and the GI50 [23] was 1.58 µM. For the same compound, the TGI [23] was 8.87 µM, the GI50 [24] was 5.65 µM and the TGI [24] was 75.9 µM. It also gave a GI50 [25] of 11 µM, a TGI [25] of 76.9 µM and a GI50 [26] of 3.57 µM. It also gave a TGI [26] of 16.3 µM, a GI50 [27] of 3 µM and a TGI [27] of 16.1 µM. It also gave a GI50 [28] of 8.55 µM, a TGI [28] of 27.1 µM and a GI50 [29] of 4.06 µM. The TGI [29] was 38.4 µM, the GI50 [30] was 9.06 µM and the TGI [30] was over 100 µM. It also gave a GI50 [31] of 3.05 µM, a TGI [31] of 17.7 µM and a GI50 [32] of 4.13 µM. It also gave a TGI [32] of 29.9 µM, a GI50 [33] of 4.25 µM and a TGI [33] of 25.7 µM. For the same compound, the GI50 [34] was 4.57 µM, the TGI [34] was 18.3 µM and the GI50 [35] was 39 µM. It also gave a TGI [35] of over 100 µM, a GI50 [36] of 6.23 µM and a TGI [36] of 30.5 µM. For the same compound, the GI50 [37] was 4.41 µM, the TGI [37] was 29.1 µM and the GI50 [38] was 1.89 µM. The TGI [38] was 7.26 µM, the GI50 [39] was 2.65 µM and the TGI [39] was 9.74 µM. It also gave a GI50 [40] of 6.21 µM, a TGI [40] of 26 µM and a GI50 [41] of 8.35 µM. For the same compound, the TGI [41] was 22.7 µM, the GI50 [42] was 14.4 µM and the TGI [42] was 36.8 µM. The GI50 [43] was 10.1 µM, the TGI [43] was 32.6 µM and the GI50 [44] was 8.91 µM. For the same compound, the TGI [44] was 26.8 µM, the GI50 [45] was 7.35 µM and the TGI [45] was 22.5 µM. For the same compound, the GI50 [46] was 21.4 µM, the TGI [46] was 84.6 µM and the GI50 [47] was 8.82 µM. The TGI [47] was over 100 µM, the GI50 [48] was 15.4 µM and the TGI [48] was 55.3 µM. The GI50 [49] was 5.58 µM, the TGI [49] was 19.7 µM and the GI50 [50] was 2.95 µM. For the same compound, the TGI [50] was 22.6 µM, the GI50 [51] was 6.15 µM and the TGI [51] was 41.2 µM. It also gave a GI50 [52] of 3.99 µM, a TGI [52] of 34.5 µM and a GI50 [53] of 5 µM. For the same compound, the TGI [53] was 19.2 µM, the GI50 [54] was 8.01 µM and the TGI [54] was 27.4 µM. For the same compound, the GI50 [55] was 5.99 µM, the TGI [55] was 22.2 µM and the GI50 [56] was 6.78 µM. For the same compound, the TGI [56] was 21.4 µM, the GI50 [57] was 1.45 µM and the TGI [57] was 12.8 µM.
